Where two headings read alike, the source gives them in different places.
Experiments:
[1] = system: BDNF
Procedure: (§1) Adult male Sprague-Dawley rats weighing 200-250 gm (n=122) were habituated to housing conditions for at least seven days. All animals were housed four per cage in a vivarium with stable temperature and a reversed 12-h light/dark cycle, with unlimited access to food and water. β-alanine was provided with glucomannan in a powder form in an 80:20 blend. Rats were provided with 100 mg of the powder per kg of body mass (a total of 30 mg of powder was dissolved in 25 ml of water). PL treated rats were provided with the vehicle (glucommanan) at the same relative dose. Animals were handled once daily. All testing was performed during the dark phase in dim red light conditions. This study was performed according to the principles and guidelines of the National Institute of Health Guide for the Care and Use of Laboratory Animals. All treatment and testing procedures were approved by the Animal Care Committee of the Ben-Gurion University of the Negev, Israel.
(§2) Following the 7-day acclimation period in which all rats received a normal powder diet, they were randomized into the four groups. Following 30-days of either normal diet or β-alanine supplemented diet the rats were exposed to either the PSS or sham protocol. All behavioral tests were conducted 7 days following the PSS or sham protocol, and the rats were then sacrificed 24 hours later and brains were removed. Diets were maintained until the end of the study.

[2] = system: brain carnosine; details: for Brain Carnosine Concentrations, Amygdala / Brain Carnosine Concentrations, Cortex / Brain Carnosine Concentrations, Hippocampus / Brain Carnosine Concentrations, Hypothalamus / Brain Carnosine Concentrations, Olfactory bulb / Brain Carnosine Concentrations, Thalamus: 30 days BA, mean ± SD
Procedure: as §1
Rats were randomly assigned to one of four treatment groups (n=30 or 31 per group):
as §2
(§3) Following the 30-day supplementation regimen, animals were exposed to the PSS protocol. The PSS protocol consisted of placing the experimental animal on well-soiled cat litter (in use by the cat for 2 days, sifted for stools) for 10 minutes in a closed environment. Control animals were exposed to fresh, unused litter for the same amount of time. The situational reminder consisted of placing animals on fresh, unused cat litter for 15 minutes.
Carnosine concentrations in brain homogenates were determined by LC-MS-MS analysis.
Brains were partially thawed on ice and six brain regions were sampled: cerebral cortex, hypothalamus, hippocampus, amygdala, olfactory bulb, and thalamus. Each sample was weighed and transferred into individual vials for further homogenization.
Brain samples were homogenized in saline (0.9% NaCl; 100 mg/l ml) supplemented with 1 mM EDTA, using Polytron Homogenizer. Homogenates were stored at −20°±5° C. prior to LC/MS/MS analysis. L-Carnosine purchased from Sigma was used to prepare standards for the calibration curve (in ppb). Samples were diluted ×5 prior to analysis. The concentration read from the standard curve was multiplied by the dilution factor and converted to ppm units.

[3] = β-alanine taken as a free amino acid; cited from earlier work
[4] = system: mice; details: β-alanine supplemented diet; cited from earlier work
[5] = system: brain carnosine; details: mice, β-alanine supplemented diet; cited from earlier work
[6] = system: corticosterone
Procedure: as §1
Following the 7-day acclimation period in which all rats received a normal powder diet, they were randomized into the four groups. Following 30-days of either normal diet or β-alanine supplemented diet the rats were exposed to either the PSS or sham protocol. […]
Plates were read at 450 nm. […] All samples were measured in duplicate.

[7] = system: BDNF; details: mice, β-alanine supplemented diet; cited from earlier work
[8] = system: animal model of post-traumatic stress disorder (PTSD)
Procedure: as §1, §2, §3

[9] = PSS+BA: rats exposed to PSS, Day 8 post-PSS
[10] = UNEX+BA: rats not exposed to PSS
[11] = PSS+PL compared with PSS+BA (and UNEX groups), 7 days after PSS

SMILES: NCCC(=O)O [BA, β-alanine]
- BDNF expression, CA1 subregion ([1]; PSS+BA compared with PSS+PL, p<0.001): significantly greater than exposed rats fed a normal diet
- BDNF expression, DG subregion ([1]; PSS+BA compared with PSS+PL, p=0.011): greater
- BDNF expression, CA1 subregion ([1]; PSS+BA compared with unexposed animals): significantly lower than unexposed animals
- BDNF expression, DG subregion ([1]; PSS+BA compared with unexposed animals (p=0.765, p=0.818)): not statistically different
- BDNF expression in unexposed rats ([1]; UNEX+BA versus UNEX+PL): did not appear to increase BDNF expression
- Brain Carnosine Concentrations, Amygdala [2, 9]: 3.52 ± 3.84 a, c mg · L^−1
- Brain Carnosine Concentrations, Cortex [2, 9]: 6.55 ± 4.90 a, c mg · L^−1
- Brain Carnosine Concentrations, Hippocampus [2, 9]: 5.58 ± 4.39 a, c mg · L^−1
- Brain Carnosine Concentrations, Hypothalamus [2, 9]: 4.54 ± 4.04 a, c mg · L^−1
- Brain Carnosine Concentrations, Olfactory bulb [2, 9]: 13,109 ± 9,773 mg · L^−1
- Brain Carnosine Concentrations, Thalamus [2, 9]: 5.97 ± 4.48 a, c mg · L^−1
- Brain Carnosine Concentrations, Amygdala [2, 10]: 2.34 ± 3.04 mg/L
- Brain Carnosine Concentrations, Cortex [2, 10]: 3.78 ± 4.47 a mg · L^−1
- Brain Carnosine Concentrations, Hippocampus [2, 10]: 3.75 ± 3.98 a mg · L^−1
- Brain Carnosine Concentrations, Hypothalamus [2, 10]: 2.60 ± 2.85 mg/L
- Brain Carnosine Concentrations, Olfactory bulb [2, 10]: 8,309 ± 6,887 mg · L^−1
- Brain Carnosine Concentrations, Thalamus [2, 10]: 3.99 ± 5.10 a mg · L^−1
- Brain carnosine concentrations in the hippocampus and other brain sections ([2]; animals supplemented with BA compared to PL): significantly greater
- influence on carnosine concentrations in the olfactory bulb ([2]; supplemented versus normal diet): did not appear to have any influence
- duration of flushing/tingling of the skin [3]: less than 60 minutes
- activity in the open arms of an elevated plus-maze test [4]: significantly greater activity
- brain carnosine concentrations in the cerebral cortex and hypothalamus [5]: increase brain carnosine concentrations
- corticosterone concentrations ([6]; PSS+BA compared with unexposed animals, p<0.001): significantly higher corticosterone concentrations
- corticosterone concentrations ([6]; exposed rats normal diet versus exposed rats BA, p=0.837): No significant differences
- concentration of BDNF in the hippocampus [7]: increase the concentration of BDNF
- startle amplitude ([8]; PSS+BA compared with PSS+PL, p=0.085): tended to have a lower startle amplitude
- EPM scores ([8]; PSS+BA compared with UNEX+BA): comparable scores to UNEX+BA
- startle amplitude ([8]; PSS+BA compared with unexposed animals (normal diet p<0.001; BA p=0.0001)): significantly greater
- immobility upon cue ([8]; PSS+BA compared with unexposed animals (normal diet p=0.01; BA p=0.003)): significantly greater immobility upon cue
- freezing, difference ([8]; PSS+BA less than PSS+PL, p=0.148): approximately 6%
- freezing, significance of difference ([8]; PSS+BA versus PSS+PL, p=0.148): not statistically different
- freezing upon cue-exposure (percentage of total time) ([8]; PSS+BA, Day 8): 34.8%
- number of open arm entries in the EPM [8, 11]: significantly less
- time in the open arms of the EPM [8, 11]: significantly less time in the open arms
- Anxiety index ([8]; PSS+PL compared with PSS+BA, p<0.05): higher
- startle habituation score ([8]; animals exposed to PSS regardless of diet versus unexposed groups, p<0.001): significantly lower habituation score
- lower startle response ([8]; exposed + β-alanine versus exposed not supplemented, p=0.085): 19%
- lower freezing response ([8]; exposed + β-alanine versus exposed not supplemented, p=0.148): 15%
